{"source": "patent US20210244791A1", "about": "“APPLICATION OF PEDF-DERIVED SHORT PEPTIDES IN TENDON HEALING” (BRIM Biotechnology, Inc., priority 2018, published 2021)", "key": {"injured Achilles tendon": {"test_system": "injured Achilles tendon", "assay": "Rat model of Achilles tendon injury, histology (H&E) and histopathological score", "assay_type": "in vivo", "conditions": "1 week postoperative", "text": "Representative micrographs of the histopathological analysis by H&E staining. H&E-stained sections in higher magnification show uninjured tendon tissue with a relative scarcity of cells among the collagen fibers.\n(A) Representative H&E-stained longitudinal sections in higher magnification show the nuclei morphologies in uninjured tendon tissue and injured tendon treated with vehicle/alginate and 29-mer/alginate for 1 week. (B) Histopathological scores. Total scores were determining by fiber structure, fiber arrangement, rounding of the nuclei, resident cell density and inflammation (infiltration of inflammatory cells, neovascularization and fatty deposits). Data are reported as mean±SE. *P<0.0005 versus vehicle/alginate-treated tendon; ^#P<0.05 versus 29-mer/alginate-treated tendon.\n(§1) To investigate the effects of the 29-mer peptide on tendon healing, a rat model of Achilles tendon injury was established as reported by Orhan et al. (The effect of extracorporeal shock waves on a rat model of injury to tendon Achilles. A histological and biomechanical study. J. Bone Joint Surg. Br. 2004;.86(4):.613-618). Adult 10-week-old male Sprague-Dawley rats (initial body weight=312±11 g) were anesthetized by an intraperitoneal injection of xylazine (10 mg/kg). Then, the left tendo Achilles injury was created by full-thickness insertion of an 18-G needle through tendo Achilles 1 cm proximal to the calcaneum attachment site. This created a horizontal wound that was flanked by intact tendon tissue to prevent the retraction of severed ends. The skin incision was closed after the wound was irrigated with sterile saline. Treatments were applied to area around the tendon lesion by subcutaneous injection with 150 μl of alginate gel mixed with 100 μM 29-mer or DMSO vehicle (six rats per experimental condition).\nThe tendon and surrounding soft tissue were dissected. Specimens were fixed in a 4% paraformaldehyde (PFA) solution and then were embedded in paraffin blocks. Sections (5 μm in thickness) were longitudinally cut and stained with hematoxylin and eosin (H&E) or used for immunohistochemical examination. 36 sections per tendon were carefully prepared so as to include the most severely degenerated area. Images were captured using a Nikon Eclipse 80i microscope (Nikon Corporation, Tokyo, Japan) equipped with a Leica DC 500 camera (Leica Microsystems, Wetzlar, Germany). Four sections of each sample containing injured tendon tissues were selected and evaluated by two blinded observers to assess the tendon morphology according to a modified semi-quantitative grading score from 0 to 3 proposed by Chen et al. (Tendon derived stem cells promote platelet-rich plasma healing in collagenase-induced rat Achilles tendinopathy. Cell Physiol. Biochem., 2014; 34(6): 2153-68). The scores analyzed the fiber structure (0-3), fiber arrangement (0-3), rounding of the nuclei (0-3), resident cell density (0-3), and inflammation (0-3; infiltration of inflammatory cells, neovascularization and fatty deposits). According to this grading system, a perfectly normal tendon obtained a score of 0, whereas a score of 15 was assigned to maximally abnormal tendons.\nTo investigate the therapeutic effect of the 29-mer peptide on injured tendon, a rat model of Achilles tendon injury was established by full-thickness insertion of an 18-G needle through the tendon Achilles. We delivered the 29-mer in a 150 μl alginate gel, which releases 90% loaded 29-mer in 5 days as described in a previous protocol (Ho et al., PEDF-derived peptide promotes skeletal muscle regeneration through its mitogenic effect on muscle progenitor cells. Am J Physiol. Cell Physiol. 2015 Aug. 1; 309(3): C159-68)."}, "CD146-positive TSPC": {"test_system": "CD146-positive TSPC", "assay": "CD146 immunostaining of TSPC in injured Achilles tendon", "assay_type": "in vivo, rat", "conditions": "1 week after wounding; peptide/alginate gel; vehicle/alginate 38.3±7.8", "method": "(A) Representative CD146-stained longitudinal sections. (Original magnification×200). (B) The number of CD146-positive TSPC per 200×field of view on injured tendon sections. Data are reported as mean±SE. Total CD146^+ cells were evaluated from 6 sections/tendon specimen, with 3 rats in each group. *P<0.001 versus vehicle/alginate-treated tendon; #p <0.001 versus 29-mer/alginate-treated tendon.\nas §1, with “The skin incision was closed after the wound was irrigated with sterile saline. Treatments were applied to area around the tendon lesion by subcutaneous injection with 150 μl of alginate gel mixed with 100 μM 29-mer or DMSO vehicle (six rats per experimental condition).” left out\nCD146 is one of the TSPC markers. […] To test the mechanism of the 29-mer-induced tendon repair, CD146 immunostaining of TSPC located at injured tendon was measured, at 1 week after wounding. […]"}, "cyclin D1": {"test_system": "cyclin D1", "assay": "Western blot analysis of cyclin D1 expression in TSPC", "assay_type": "cell-based, rabbit", "conditions": "TSPC treated 24 h; compared with solvent-treated cells; normalized to β-actin", "method": "Primary rabbit TSPC were treated with 10NM 29-mer or its variants for 24 h. Representative blots (A) and densitometric analysis with the SD (B) from three independent experiments are shown. Cyclin D1 expression was normalized to ([…]. *P<0.01 vs. solvent-treated cells. ^#P<0.05 vs. 29-mer-treated cells.\nAchilles tendons from New Zealand White rabbits (6-8 months old, 3.0-4.0 kg) were used in this study. Achilles tendons were washed two times with sterile phosphate-buffered saline (PBS) containing 50 μg/ml gentamicin. The tendon and tendon sheath were cut into small pieces (1-2 mm^3). Each 100 mg of fragment was then digested in a solution containing 3 mg/ml of type I collagenase and 4 mg/ml of dispase in 1 ml balance salt solution (BSS; Alcone) at 37° C. for 4 hours. The digested tissues were washed three times with PBS and collected by centrifugation (800 g for 10 min). The digested tissues were placed in tissue-culture plates (Falcon Labware; NJ, USA) and resuspended in high-glucose DMEM supplemented with 10% FBS and 50 μg/ml gentamycin, and maintained at 37° C. with 5% CO2. After 5 days, the medium was changed to remove the loosened tissue residues. Subsequently, tendon cells were incubated with 10% FBS medium for 2 days, and then cultured with a basal medium (2% FBS, 1% ITSE, 300 μg/ml L-glutamine, 1% antibiotic-antimicotic solutions) for further 10 days. Culture medium was changed every 3 days. For passage, tendon cells were harvested with 0.25% trypsin/EDTA, cell counting by haemocytometer, approximately 5×10^3 cells were seeded in each well of a 96-well cell culture plate or 2×10^5 cells were seeded in each well of a 6-well cell culture plate for 24 h. These expanded tendon cells were then treated with 10 μM 29-mer or its variants in fresh basal medium for further 24 h and subjected to cell proliferation assay and western blot analysis, respectively.\nCell lysis, SDS-PAGE, and antibodies used for immunoblotting were performed as described (Ho et al., 15-deoxy-Delta(12,14)-prostaglandin J2 induces vascular endothelial cell apoptosis through the sequential activation of MAPKS and p53. J Biol. Chem., 2008; 283(44): 30273-30288). The band intensity in immunoblot was evaluated with a Model GS-700 imaging densitometer (Bio-Rad Laboratories, Hercules, Calif.) and analyzed using Labworks 4.0 software.\nHowever, the 29-mer effect on cyclin D1 protein induction was almost abolished by alanine/glycine replacement at residue S93, A96, Q98, 1103, 1104 and R106, respectively (1.3±0.1, 1.5±0.3, 1.3±0.1, 0.9±0.1, 1.3±0.2, and 1.0±0.3). […] The data also imply that the PDSP at positions Ser93, Ala96, Gln98, Ile103, Ile104, and Arg106 are important for sustaining the PDSP effect on induction of TSPC proliferation."}}}
{"substance": "H105A: 29-mer variant with single alanine alteration at residue 105 (SLGAEQRTESIIARALYYDLISSPDIHGT; UniProt P36955 93-121, looked up, variant H105A)", "values": [{"measurement": "total histopathological score", "setting": "injured Achilles tendon; peptide/alginate gel, 0 = normal tendon, 15 = maximally abnormal, vehicle/alginate 12.7±0.6", "value": "7.8±0.7"}, {"measurement": "histological appearance of treated tendon (H&E staining)", "setting": "injured Achilles tendon; subcutaneous 150 μl alginate gel with 100 μM peptide", "value": "uniform appearance of well-aligned collagen fibers and no degenerative events similar to the 29-mer treatment"}, {"measurement": "number of CD146-positive TSPC on injured tendon sections", "setting": "CD146-positive TSPC", "value": "88.5±7.8", "unit": "cells per 200× field"}, {"measurement": "induction of the cyclin D1 protein", "setting": "cyclin D1", "value": "2.7±0.3", "unit": "fold"}]}
